Source: the supplement of paper PMC11451515

Test system: NOMO1
Assay: cell viability relative to DMSO control; higher = less cytotoxic
Conditions: 48 h
Outline: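 Viability is expressed as a percentage of DMSO wells within each plate, and cell-free wells serve as background. Seeding densities in the 1536-well plates (5 μl) were 500 cells/well for NOMO1 or SEM leukemia cells and 1000 cells/well for P12-Ichikawa. Each line was adapted for at least four passages in each medium. Library compounds in DMSO were pin-dosed at 47 μM to 0.79 nM (11 points, threefold), and CellTiter-Glo One luminescence was read after 48 h at 37°C.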

[1] = HPLM + 10% dialyzed FBS, 0.000781 µM
[2] = HPLM + 10% dialyzed FBS, 0.00234 µM
[3] = HPLM + 10% dialyzed FBS, 0.00702 µM
[4] = HPLM + 10% dialyzed FBS, 0.0211 µM
[5] = HPLM + 10% dialyzed FBS, 0.0632 µM
[6] = HPLM + 10% dialyzed FBS, 0.19 µM
[7] = HPLM + 10% dialyzed FBS, 0.569 µM
[8] = HPLM + 10% dialyzed FBS, 1.71 µM
[9] = HPLM + 10% dialyzed FBS, 5.12 µM
[10] = HPLM + 10% dialyzed FBS, 15.4 µM
[11] = HPLM + 10% dialyzed FBS, 46.1 µM
[12] = RPMI 5 mM glucose + 10% FBS, 0.000781 µM
[13] = RPMI 5 mM glucose + 10% FBS, 0.00234 µM
[14] = RPMI 5 mM glucose + 10% FBS, 0.00702 µM
[15] = RPMI 5 mM glucose + 10% FBS, 0.0211 µM
[16] = RPMI 5 mM glucose + 10% FBS, 0.0632 µM
[17] = RPMI 5 mM glucose + 10% FBS, 0.19 µM
[18] = RPMI 5 mM glucose + 10% FBS, 0.569 µM
[19] = RPMI 5 mM glucose + 10% FBS, 1.71 µM
[20] = RPMI 5 mM glucose + 10% FBS, 5.12 µM
[21] = RPMI 5 mM glucose + 10% FBS, 15.4 µM
[22] = RPMI 5 mM glucose + 10% FBS, 46.1 µM
[23] = RPMI 5 mM glucose + 10% dialyzed FBS, 0.000781 µM
[24] = RPMI 5 mM glucose + 10% dialyzed FBS, 0.00234 µM
[25] = RPMI 5 mM glucose + 10% dialyzed FBS, 0.00702 µM
[26] = RPMI 5 mM glucose + 10% dialyzed FBS, 0.0211 µM
[27] = RPMI 5 mM glucose + 10% dialyzed FBS, 0.0632 µM
[28] = RPMI 5 mM glucose + 10% dialyzed FBS, 0.19 µM
[29] = RPMI 5 mM glucose + 10% dialyzed FBS, 0.569 µM
[30] = RPMI 5 mM glucose + 10% dialyzed FBS, 1.71 µM
[31] = RPMI 5 mM glucose + 10% dialyzed FBS, 5.12 µM
[32] = RPMI 5 mM glucose + 10% dialyzed FBS, 15.4 µM
[33] = RPMI 5 mM glucose + 10% dialyzed FBS, 46.1 µM

SMILES	cell viability [1] [%]	cell viability [2] [%]	cell viability [3] [%]	cell viability [4] [%]	cell viability [5] [%]	cell viability [6] [%]	cell viability [7] [%]	cell viability [8] [%]	cell viability [9] [%]	cell viability [10] [%]	cell viability [11] [%]	cell viability [12] [%]	cell viability [13] [%]	cell viability [14] [%]	cell viability [15] [%]	cell viability [16] [%]	cell viability [17] [%]	cell viability [18] [%]	cell viability [19] [%]	cell viability [20] [%]	cell viability [21] [%]	cell viability [22] [%]	cell viability [23] [%]	cell viability [24] [%]	cell viability [25] [%]	cell viability [26] [%]	cell viability [27] [%]	cell viability [28] [%]	cell viability [29] [%]	cell viability [30] [%]	cell viability [31] [%]	cell viability [32] [%]	cell viability [33] [%]
CCCCCCCCCCCCCCCCCCOP(=O)([O-])OC1CC[N+](C)(C)CC1	93.4	114	94.8	114	110	120	114	107	107	98.4	99	90.5	105	113	121	98.5	113	120	105	110	93.8	96.4	96.6	107	105	103	100	118	110	102	106	93.2	84.7
O=C(CCc1ccc(O)cc1)c1c(O)cc(O)cc1O[C@@H]1O[C@H](CO)[C@@H](O)[C@H](O)[C@H]1O												82.5	80.8	81.7	77	92.1	86.1	82.4	78.1	85.4	75.1	84.8	104	96	115	105	115	106	50.2	73.1	85.1	53.1	81.2
COc1ccc2c(c1OC)CN1CCc3cc4c(cc3C1C2)OCO4 (stereo not drawn)	86.4	82.4	98.4	99.3	109	82.5	96.7	44.7	14.9	6.67	5.61	106	92.4	89.2	98.8	98.4	89.9	100	42.6	16	6.1	5.21	88	92.7	93.3	103	102	92.2	92.9	49.3	20.5	5.52	4.95
C=CCn1c(=O)c2cnc(Nc3ccc(N4CCN(C)CC4)cc3)nc2n1-c1cccc(C(C)(C)O)n1	125	116	123	122	125	96.2	52.1	31.8	24.3	28.1	29.2	118	117	138	128	140	132	122	36.9	18.5	17.9	18.6											
C[S+]([O-])c1ccc(-c2nc(-c3ccc(F)cc3)c(-c3ccncc3)[nH]2)cc1 (stereo not drawn)	78.8	101	108	106	106	117	106	66.2	35.1	3.41	2.33	80	90.4	105	95	113	96.3	106	75.9	29.7	4.04	2.28	83.5	86.2	87.3	98.2	99.1	86.5	99.1	64.6	34.6	4.16	2.47
CO[C@H]1C[C@@H]2CC[C@@H](C)[C@@](O)(O2)C(=O)C(=O)N2CCCC[C@H]2C(=O)O[C@H]([C@H](C)C[C@@H]2CC[C@@H](OCCO)[C@H](OC)C2)CC(=O)[C@H](C)/C=C(/C)[C@@H](O)[C@@H](OC)C(=O)[C@H](C)C[C@H](C)\C=C/C=C\C=C/1C	91.8	97.5	95.7	92.9	81.7	95.4	80.7	68.8	73.8	64.1	57.4	86.5	94.6	97.8	99.4	98.4	94.2	85.4	88	84.8	61.3	70.8	85	91.2	84.5	76.7	85	78.1	78.7	73.1	76.3	58.9	61.5
O=C1CCc2ccc(OCCCCN3CCN(c4cccc(Cl)c4Cl)CC3)cc2N1	115	98.6	119	77.7	96.1	109	89.2	91.6	106	107	85.1	91.2	91.7	94.7	86.6	92.9	89.5	96.6	97.2	81.6	93.6	77.6	106	83.6	97.7	75.2	96.1	93.6	91.5	98.1	91.1	97.5	78.7
CC(C)[C@H](CO)Nc1nc(Nc2cccc(Cl)c2)c2ncn(C(C)C)c2n1																							111	124	127	125	124	112	123	84.2	12.6	6.44	3.06
Cc1cc(O)c2c(c1)C(=O)c1cc(O)cc(O)c1C2=O	105	102	117	104	99.3	118	98.8	121	96.2	98.4	87.7	85.8	104	107	88.1	92.1	88	97.2	85.3	90.4	85.9	82.5	90.5	99	109	96.9	110	94.6	92.1	92	95.7	90.3	87.4
